Patent publication US3995044A, “Pyridine carboxylic acid amides for mycobacterium infections” (priority 1974, dated 1976)
≈ marks a conversion by molar mass, not a printed value. Like-named read-outs stand apart in the source and are kept apart here.

Key:
Assay in all cases: microbe, parasite or virus in culture
Type in all cases: cell-based
[1] = test system: Mycobacterium tuberculosis INH-res.; settings: read-out: MIC, INH-res.
[2] = test system: Mycobacterium tuberculosis INH TSC ETH-res.; settings: read-out: MIC, INH TSC ETH-res.
[3] = test system: Mycobacterium tuberculosis INH-TSC-res.; settings: read-out: Minimum inhibitory concentration (on egg medium), resistant test strain INH-TSC-res.
[4] = test system: Mycobacterium tuberculosis PAS-res.; settings: read-out: MIC, PAS-res.
[5] = test system: Mycobacterium tuberculosis SM-res.; settings: read-out: MIC, SM-res.
[6] = test system: Mycobacterium tuberculosis CS-res.; settings: read-out: MIC, CS-res.
[7] = test system: Mycobacterium tuberculosis INH-res.; settings: read-out: Minimum inhibitory concentration (on egg medium), resistant test strain INH-res.

Row | SMILES | MIC [1] [µg/mL] | MIC [2] [µg/mL] | MIC [3] [µg/mL] | MIC [4] [µg/mL] | MIC [5] [µg/mL] | MIC [6] [µg/mL] | MIC [7] [µg/mL]
1 | O=C(NCc1cnc2ccccc2c1)c1cc([N+](=O)[O-])cc([N+](=O)[O-])c1 [Example 9] | 0.4 (≈ 1.14 µM) | 0.03 (≈ 0.0852 µM) | 2 (≈ 5.68 µM) | 0.4 (≈ 1.14 µM) | 0.2 (≈ 0.568 µM) | 0.2 (≈ 0.568 µM) | 2 (≈ 5.68 µM)
2 | O=C(NCc1ccncc1)c1cc([N+](=O)[O-])cc([N+](=O)[O-])c1 [Example 13] |  |  | 128 (≈ 423 µM) |  |  |  | 128 (≈ 423 µM)
3 | Cc1cccc(CNC(=O)c2cc([N+](=O)[O-])cc([N+](=O)[O-])c2)n1 [Example 14] | 0.8 (≈ 2.53 µM) | 0.8 (≈ 2.53 µM) |  | 1.6 (≈ 5.06 µM) | 1.6 (≈ 5.06 µM) | 1.6 (≈ 5.06 µM) | 
4 | O=C(NCc1ccccn1)c1cc([N+](=O)[O-])cc([N+](=O)[O-])c1 [Example 1, N-(pyrid-2-ylmethyl)-3,5-dinitrobenzoic acid amide] | 0.8 (≈ 2.65 µM) | 0.8 (≈ 2.65 µM) | 1 (≈ 3.31 µM) | 1.6 (≈ 5.29 µM) | 1.6 (≈ 5.29 µM) | 1.6 (≈ 5.29 µM) | 1 (≈ 3.31 µM)
5 | O=C(NCc1ccc2ccccc2n1)c1cc([N+](=O)[O-])cc([N+](=O)[O-])c1 [Example 15] | 0.1 (≈ 0.284 µM) | 0.05 (≈ 0.142 µM) | 1 (≈ 2.84 µM) | 0.4 (≈ 1.14 µM) | 0.1 (≈ 0.284 µM) | 0.2 (≈ 0.568 µM) | 1 (≈ 2.84 µM)
6 | O=C(NCC1CCCO1)c1cc([N+](=O)[O-])cc([N+](=O)[O-])c1 (stereo not shown) [Example 20] | 1.6 (≈ 5.42 µM) | 1.6 (≈ 5.42 µM) |  | 1.6 (≈ 5.42 µM) | 1.6 (≈ 5.42 µM) | 1.6 (≈ 5.42 µM) | 
7 | O=C(NCc1cccnc1)c1cc([N+](=O)[O-])cc([N+](=O)[O-])c1 [Example 12] |  |  | 32 (≈ 106 µM) |  |  |  | 8 (≈ 26.5 µM)
8 | CC(NC(=O)c1cc([N+](=O)[O-])cc([N+](=O)[O-])c1)c1ccccn1 (stereo not shown) [Example 29] | 1.6 (≈ 5.06 µM) | 0.8 (≈ 2.53 µM) | 2 (≈ 6.32 µM) | 1.6 (≈ 5.06 µM) | 0.8 (≈ 2.53 µM) | 1.6 (≈ 5.06 µM) | 2 (≈ 6.32 µM)
9 | O=C(NCC1CCC=CO1)c1cc([N+](=O)[O-])cc([N+](=O)[O-])c1 (stereo not shown) [Example 22] | 0.1 (≈ 0.325 µM) | 0.2 (≈ 0.651 µM) |  | 0.8 (≈ 2.6 µM) | 0.4 (≈ 1.3 µM) | 0.4 (≈ 1.3 µM) | 
10 | O=C(NCCc1ccccn1)c1cc([N+](=O)[O-])cc([N+](=O)[O-])c1 [Example 10] |  |  | 32 (≈ 101 µM) |  |  |  | 1 (≈ 3.16 µM)
